# Measurements as given in ChEMBL document CHEMBL1944561, “Discovery and SAR exploration of a novel series of imidazo[4,5-b]pyrazin-2-ones as potent and selective mTOR kinase inhibitors” (Bioorg Med Chem Lett, 2011).
# Legend:
# [1] = molecular target: T1, Serine/threonine-protein kinase Sgk1 (Homo sapiens) (UniProt O00141); assay: Inhibition of SGK assessed as activity remaining at 10 uM
# T1 sequence (whole entry): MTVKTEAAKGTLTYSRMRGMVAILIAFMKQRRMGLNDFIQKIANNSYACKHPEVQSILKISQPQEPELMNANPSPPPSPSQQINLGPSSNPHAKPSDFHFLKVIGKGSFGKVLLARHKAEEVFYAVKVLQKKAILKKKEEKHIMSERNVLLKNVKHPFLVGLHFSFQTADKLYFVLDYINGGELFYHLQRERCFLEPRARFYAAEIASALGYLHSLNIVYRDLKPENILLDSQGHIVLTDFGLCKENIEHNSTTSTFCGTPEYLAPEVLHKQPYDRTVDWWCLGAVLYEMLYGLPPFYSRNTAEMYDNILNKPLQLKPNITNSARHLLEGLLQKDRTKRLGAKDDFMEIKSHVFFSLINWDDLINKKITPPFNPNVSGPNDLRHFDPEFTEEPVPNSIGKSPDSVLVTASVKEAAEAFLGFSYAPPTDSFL
# [2] = molecular target: Misshapen-like kinase 1 (Homo sapiens) (UniProt Q8N4C8); assay: Inhibition of MINK assessed as activity remaining at 10 uM
# [3] = molecular target: Proto-oncogene tyrosine-protein kinase receptor Ret (Homo sapiens) (UniProt P07949); assay: Inhibition of Ret assessed as activity remaining at 10 uM
# [4] = molecular target: Epidermal growth factor receptor (Homo sapiens) (UniProt P00533); assay: Inhibition of EGFR assessed as activity remaining at 10 uM
# [5] = molecular target: T2, Serine/threonine-protein kinase TBK1 (Homo sapiens) (UniProt Q9UHD2); assay: Inhibition of TBK1 assessed as activity remaining at 10 uM
# T2 sequence (whole entry): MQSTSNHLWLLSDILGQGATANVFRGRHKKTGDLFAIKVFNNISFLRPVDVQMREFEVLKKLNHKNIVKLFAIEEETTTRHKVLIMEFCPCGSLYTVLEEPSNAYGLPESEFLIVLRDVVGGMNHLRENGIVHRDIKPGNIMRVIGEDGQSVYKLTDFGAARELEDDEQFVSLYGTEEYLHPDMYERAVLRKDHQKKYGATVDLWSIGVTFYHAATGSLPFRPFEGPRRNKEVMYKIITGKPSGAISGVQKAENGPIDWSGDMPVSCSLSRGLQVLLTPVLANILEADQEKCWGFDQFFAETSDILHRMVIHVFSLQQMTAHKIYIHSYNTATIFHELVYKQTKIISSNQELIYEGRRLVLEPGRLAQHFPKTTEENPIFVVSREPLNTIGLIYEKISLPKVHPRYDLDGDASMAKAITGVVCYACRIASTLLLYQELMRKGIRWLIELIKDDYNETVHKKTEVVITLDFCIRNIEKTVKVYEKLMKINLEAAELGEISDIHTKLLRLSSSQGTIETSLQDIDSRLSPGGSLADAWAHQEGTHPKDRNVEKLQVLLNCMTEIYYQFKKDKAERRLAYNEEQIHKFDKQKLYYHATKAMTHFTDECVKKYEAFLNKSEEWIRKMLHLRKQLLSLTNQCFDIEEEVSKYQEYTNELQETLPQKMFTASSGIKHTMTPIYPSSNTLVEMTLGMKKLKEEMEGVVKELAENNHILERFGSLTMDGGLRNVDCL
# [6] = molecular target: Vascular endothelial growth factor receptor 2 (Homo sapiens) (UniProt P35968); assay: Inhibition of KDR assessed as activity remaining at 10 uM
# [7] = molecular target: Angiopoietin-1 receptor (Homo sapiens) (UniProt Q02763); assay: Inhibition of Tie2 assessed as activity remaining at 10 uM
# [8] = molecular target: T3, Tyrosine-protein kinase receptor TYRO3 (Homo sapiens) (UniProt Q06418); assay: Inhibition of Rse assessed as activity remaining at 10 uM
# T3 sequence (whole entry): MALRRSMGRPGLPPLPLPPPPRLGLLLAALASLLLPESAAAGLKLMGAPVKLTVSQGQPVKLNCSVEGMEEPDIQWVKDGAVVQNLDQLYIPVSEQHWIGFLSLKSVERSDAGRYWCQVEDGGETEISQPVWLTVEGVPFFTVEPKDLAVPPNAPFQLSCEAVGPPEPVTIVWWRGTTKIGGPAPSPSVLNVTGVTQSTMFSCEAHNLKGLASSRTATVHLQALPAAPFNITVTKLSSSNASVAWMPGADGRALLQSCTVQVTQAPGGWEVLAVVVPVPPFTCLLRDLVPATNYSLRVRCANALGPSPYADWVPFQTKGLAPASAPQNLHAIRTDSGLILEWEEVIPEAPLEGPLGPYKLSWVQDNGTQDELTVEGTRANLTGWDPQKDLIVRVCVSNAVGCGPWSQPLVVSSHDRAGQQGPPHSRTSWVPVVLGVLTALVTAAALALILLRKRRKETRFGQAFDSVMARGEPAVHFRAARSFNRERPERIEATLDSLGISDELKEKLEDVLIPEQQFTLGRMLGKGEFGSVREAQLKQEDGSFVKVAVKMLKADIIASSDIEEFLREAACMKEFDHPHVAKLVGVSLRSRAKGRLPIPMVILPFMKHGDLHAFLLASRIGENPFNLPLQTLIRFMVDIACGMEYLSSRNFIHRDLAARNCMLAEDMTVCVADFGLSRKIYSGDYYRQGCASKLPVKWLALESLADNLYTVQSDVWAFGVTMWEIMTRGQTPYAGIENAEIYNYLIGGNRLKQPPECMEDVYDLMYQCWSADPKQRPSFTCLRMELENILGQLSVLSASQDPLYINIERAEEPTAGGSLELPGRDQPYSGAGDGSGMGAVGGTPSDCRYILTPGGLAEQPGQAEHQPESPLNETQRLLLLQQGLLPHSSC
# [9] = molecular target: Mast/stem cell growth factor receptor Kit (Homo sapiens) (UniProt P10721); assay: Inhibition of cKit assessed as activity remaining at 10 uM
# [10] = molecular target: Fibroblast growth factor receptor 1 (Homo sapiens) (UniProt P11362); assay: Inhibition of FGFR1 assessed as activity remaining at 10 uM
# [11] = molecular target: High affinity nerve growth factor receptor (Homo sapiens) (UniProt P04629); assay: Inhibition of TrkA assessed as activity remaining at 10 uM
# [12] = molecular target: Tyrosine-protein kinase SYK (Homo sapiens) (UniProt P43405); assay: Inhibition of Syk assessed as activity remaining at 10 uM
# [13] = molecular target: Serine/threonine-protein kinase mTOR (Homo sapiens, UniProt P42345); assay: Inhibition of mTOR-mediated Akt phosphorylation in human PC3 cells; format: cell-based, PC-3
# [14] = molecular target: RAF proto-oncogene serine/threonine-protein kinase (Homo sapiens) (UniProt P04049); assay: Inhibition of cRaf assessed as activity remaining at 10 uM
# [15] = molecular target: Mitogen-activated protein kinase 14 (Homo sapiens) (UniProt Q16539); assay: Inhibition of p38alpha assessed as activity remaining at 10 uM
# [16] = molecular target: Ribosomal protein S6 kinase alpha-1 (Homo sapiens) (UniProt Q15418); assay: Inhibition of Rsk1 assessed as activity remaining at 10 uM
# Ribosomal protein S6 kinase alpha-1 (Homo sapiens), sequence (Q15418 whole entry): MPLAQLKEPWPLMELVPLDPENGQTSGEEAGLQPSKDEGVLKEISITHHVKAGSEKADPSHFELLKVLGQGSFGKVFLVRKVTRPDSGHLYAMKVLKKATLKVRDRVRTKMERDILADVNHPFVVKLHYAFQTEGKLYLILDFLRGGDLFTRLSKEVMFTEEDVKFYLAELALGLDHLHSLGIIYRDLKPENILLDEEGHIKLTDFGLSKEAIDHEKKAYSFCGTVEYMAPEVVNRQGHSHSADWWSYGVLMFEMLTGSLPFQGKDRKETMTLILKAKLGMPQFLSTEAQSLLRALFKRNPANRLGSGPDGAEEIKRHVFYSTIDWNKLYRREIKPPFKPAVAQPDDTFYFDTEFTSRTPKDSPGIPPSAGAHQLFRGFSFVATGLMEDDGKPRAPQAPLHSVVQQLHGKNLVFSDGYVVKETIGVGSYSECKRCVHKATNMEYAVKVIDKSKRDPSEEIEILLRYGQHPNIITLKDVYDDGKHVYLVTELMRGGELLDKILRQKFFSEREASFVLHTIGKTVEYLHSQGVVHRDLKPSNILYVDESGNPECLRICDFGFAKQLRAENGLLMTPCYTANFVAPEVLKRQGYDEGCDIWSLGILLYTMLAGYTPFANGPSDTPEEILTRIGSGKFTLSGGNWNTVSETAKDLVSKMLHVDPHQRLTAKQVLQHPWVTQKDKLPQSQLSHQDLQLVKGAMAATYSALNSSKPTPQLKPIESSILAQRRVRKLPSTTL
# Mast/stem cell growth factor receptor Kit (Homo sapiens), sequence (P10721 whole entry): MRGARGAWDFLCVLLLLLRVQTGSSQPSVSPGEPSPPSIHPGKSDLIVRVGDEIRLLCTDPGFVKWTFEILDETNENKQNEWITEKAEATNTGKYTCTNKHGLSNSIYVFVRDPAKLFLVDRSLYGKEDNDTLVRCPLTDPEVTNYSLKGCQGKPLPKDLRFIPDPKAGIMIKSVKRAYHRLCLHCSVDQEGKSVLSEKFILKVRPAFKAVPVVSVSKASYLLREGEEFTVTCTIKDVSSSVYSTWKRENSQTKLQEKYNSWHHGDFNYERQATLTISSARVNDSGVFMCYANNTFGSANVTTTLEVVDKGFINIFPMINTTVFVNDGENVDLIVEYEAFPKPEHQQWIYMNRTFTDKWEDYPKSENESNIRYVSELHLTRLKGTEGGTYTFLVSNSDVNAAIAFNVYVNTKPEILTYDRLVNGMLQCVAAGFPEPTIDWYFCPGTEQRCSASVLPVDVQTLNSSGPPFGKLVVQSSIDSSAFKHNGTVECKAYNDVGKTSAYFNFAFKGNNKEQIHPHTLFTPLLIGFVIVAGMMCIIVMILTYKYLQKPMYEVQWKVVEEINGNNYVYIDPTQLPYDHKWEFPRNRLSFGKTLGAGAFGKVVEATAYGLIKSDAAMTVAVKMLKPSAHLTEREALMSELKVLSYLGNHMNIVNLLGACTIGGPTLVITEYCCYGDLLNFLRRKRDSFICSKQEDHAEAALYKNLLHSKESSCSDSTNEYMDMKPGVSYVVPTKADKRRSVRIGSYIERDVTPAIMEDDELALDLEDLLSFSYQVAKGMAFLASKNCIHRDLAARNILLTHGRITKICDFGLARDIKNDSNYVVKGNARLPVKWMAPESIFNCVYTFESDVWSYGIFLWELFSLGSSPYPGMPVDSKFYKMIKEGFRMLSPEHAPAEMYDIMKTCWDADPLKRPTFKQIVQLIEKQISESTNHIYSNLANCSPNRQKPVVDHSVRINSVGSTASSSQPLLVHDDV
# RAF proto-oncogene serine/threonine-protein kinase (Homo sapiens), sequence (P04049 whole entry): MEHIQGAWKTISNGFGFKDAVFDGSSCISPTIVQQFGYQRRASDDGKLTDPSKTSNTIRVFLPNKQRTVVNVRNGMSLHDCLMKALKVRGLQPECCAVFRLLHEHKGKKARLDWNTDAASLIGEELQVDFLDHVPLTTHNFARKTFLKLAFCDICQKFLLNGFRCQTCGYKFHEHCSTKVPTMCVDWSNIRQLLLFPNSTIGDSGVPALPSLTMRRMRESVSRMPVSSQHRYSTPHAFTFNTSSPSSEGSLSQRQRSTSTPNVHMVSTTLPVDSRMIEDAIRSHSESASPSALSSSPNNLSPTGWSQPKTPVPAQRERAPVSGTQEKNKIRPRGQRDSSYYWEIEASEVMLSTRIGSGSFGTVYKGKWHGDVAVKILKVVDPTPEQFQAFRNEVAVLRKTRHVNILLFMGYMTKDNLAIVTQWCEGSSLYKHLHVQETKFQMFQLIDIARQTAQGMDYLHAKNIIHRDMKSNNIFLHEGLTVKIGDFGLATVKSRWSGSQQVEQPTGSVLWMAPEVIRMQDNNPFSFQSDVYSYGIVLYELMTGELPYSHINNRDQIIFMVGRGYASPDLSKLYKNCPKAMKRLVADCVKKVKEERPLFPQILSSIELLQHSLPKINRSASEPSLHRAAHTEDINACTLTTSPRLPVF
# Epidermal growth factor receptor (Homo sapiens), sequence (P00533 whole entry): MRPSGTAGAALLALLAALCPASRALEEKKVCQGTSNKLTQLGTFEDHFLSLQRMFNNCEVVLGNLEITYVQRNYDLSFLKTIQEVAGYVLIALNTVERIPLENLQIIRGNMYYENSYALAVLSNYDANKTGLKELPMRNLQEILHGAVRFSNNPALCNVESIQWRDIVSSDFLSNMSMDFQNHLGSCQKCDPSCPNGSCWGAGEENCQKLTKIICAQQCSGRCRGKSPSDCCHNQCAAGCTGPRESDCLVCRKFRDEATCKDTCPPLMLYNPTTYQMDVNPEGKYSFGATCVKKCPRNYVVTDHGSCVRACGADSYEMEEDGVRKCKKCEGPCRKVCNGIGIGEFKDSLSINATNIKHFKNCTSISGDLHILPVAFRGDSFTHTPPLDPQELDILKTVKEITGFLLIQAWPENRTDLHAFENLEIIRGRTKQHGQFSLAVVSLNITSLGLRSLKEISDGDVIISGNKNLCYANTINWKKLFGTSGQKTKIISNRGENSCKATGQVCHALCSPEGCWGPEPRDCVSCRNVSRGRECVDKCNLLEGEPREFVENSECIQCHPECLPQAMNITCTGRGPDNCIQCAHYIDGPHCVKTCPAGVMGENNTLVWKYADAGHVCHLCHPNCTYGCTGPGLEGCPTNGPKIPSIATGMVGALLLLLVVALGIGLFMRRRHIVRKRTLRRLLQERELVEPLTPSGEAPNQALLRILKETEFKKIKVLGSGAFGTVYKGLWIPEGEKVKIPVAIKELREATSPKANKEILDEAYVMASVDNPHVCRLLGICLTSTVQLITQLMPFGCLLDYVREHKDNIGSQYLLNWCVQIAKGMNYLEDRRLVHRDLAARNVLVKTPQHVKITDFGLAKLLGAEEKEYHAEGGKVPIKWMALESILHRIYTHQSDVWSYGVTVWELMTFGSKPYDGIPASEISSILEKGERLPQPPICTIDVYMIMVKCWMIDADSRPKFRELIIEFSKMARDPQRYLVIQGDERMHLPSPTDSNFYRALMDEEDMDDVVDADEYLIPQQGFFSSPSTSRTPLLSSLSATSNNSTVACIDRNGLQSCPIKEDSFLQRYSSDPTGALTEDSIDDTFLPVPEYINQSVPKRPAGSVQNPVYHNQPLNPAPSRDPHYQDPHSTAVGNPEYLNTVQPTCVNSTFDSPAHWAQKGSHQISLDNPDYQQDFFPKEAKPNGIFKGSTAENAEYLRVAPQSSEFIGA
# Fibroblast growth factor receptor 1 (Homo sapiens), sequence (P11362 22-822 limits assumed): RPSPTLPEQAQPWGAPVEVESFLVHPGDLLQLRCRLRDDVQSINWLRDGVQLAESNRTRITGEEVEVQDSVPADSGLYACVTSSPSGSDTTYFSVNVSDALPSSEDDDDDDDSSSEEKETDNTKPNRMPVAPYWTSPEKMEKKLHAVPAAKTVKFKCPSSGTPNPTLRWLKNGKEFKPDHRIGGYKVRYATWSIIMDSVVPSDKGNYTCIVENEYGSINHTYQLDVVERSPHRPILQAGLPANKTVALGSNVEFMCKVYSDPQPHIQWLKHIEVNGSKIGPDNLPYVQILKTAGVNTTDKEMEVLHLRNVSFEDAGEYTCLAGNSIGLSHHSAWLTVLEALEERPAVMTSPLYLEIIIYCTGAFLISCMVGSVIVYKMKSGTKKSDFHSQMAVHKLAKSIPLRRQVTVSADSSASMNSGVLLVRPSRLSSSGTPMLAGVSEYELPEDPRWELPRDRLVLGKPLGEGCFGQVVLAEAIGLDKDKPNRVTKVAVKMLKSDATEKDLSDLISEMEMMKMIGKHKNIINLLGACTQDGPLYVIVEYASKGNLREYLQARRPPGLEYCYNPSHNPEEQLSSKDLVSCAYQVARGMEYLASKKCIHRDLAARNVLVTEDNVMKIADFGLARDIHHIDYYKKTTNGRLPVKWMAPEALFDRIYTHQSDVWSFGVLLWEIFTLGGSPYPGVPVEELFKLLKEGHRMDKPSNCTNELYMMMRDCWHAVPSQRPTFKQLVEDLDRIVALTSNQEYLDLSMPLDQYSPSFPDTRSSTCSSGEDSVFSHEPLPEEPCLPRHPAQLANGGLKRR
# Mitogen-activated protein kinase 14 (Homo sapiens), sequence (Q16539 whole entry): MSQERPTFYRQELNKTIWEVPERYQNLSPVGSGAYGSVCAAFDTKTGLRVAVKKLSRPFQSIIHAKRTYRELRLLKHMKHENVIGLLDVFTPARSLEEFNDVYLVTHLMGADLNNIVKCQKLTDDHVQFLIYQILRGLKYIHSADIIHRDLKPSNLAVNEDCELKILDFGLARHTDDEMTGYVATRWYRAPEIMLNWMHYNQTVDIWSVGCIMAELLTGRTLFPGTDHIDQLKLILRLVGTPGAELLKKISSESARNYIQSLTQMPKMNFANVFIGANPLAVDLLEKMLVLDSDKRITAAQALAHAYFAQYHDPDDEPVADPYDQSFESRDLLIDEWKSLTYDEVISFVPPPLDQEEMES
Activity [1] [%],Activity [2] [%],Activity [3] [%],Activity [4] [%],Activity [5] [%],Activity [6] [%],Activity [7] [%],Activity [8] [%],Activity [9] [%],Activity [10] [%],Activity [11] [%],Activity [12] [%],IC50 [13] [nM],Activity [14] [%],Activity [15] [%],Activity [16] [%],SMILES
96,83,77,98,91,83,85,74,83,94,86,95,322,87,92,89,CC(C)(O)c1ccc(-c2cnc3[nH]c(=O)n(CC4CCCCC4)c3n2)cc1
97,92,84,88,94,88,86,86,95,93,77,48,150,70,92,93,O=c1[nH]c2ncc(-c3ccc(-c4nc[nH]n4)cc3)nc2n1CC1CCOCC1
53,42,80,87,77,62,83,88,94,63,61,40,137,84,75,74,O=c1[nH]c2ncc(-c3ccc4[nH]cnc4c3)nc2n1CC1CCCCC1
